Data from patent US10935552B2, “Aie luminogens for visualization and treatment of cancer” (THE HONG KONG UNIVERSITY OF SCIENCE AND TECHNOLOGY, priority 2015, dated 2021).

Key:
MDCK-II cells = test: Cell imaging under fluorescent microscope, MDCK-II normal cells; assay type: cell-based, Canine; conditions: MDCK-II stained alone, 200 nM, 10 mins
Method: (§1) Cell culture: HeLa cells were cultured in the MEM containing 10% FBS and 1% antibiotics (100 units/mL penicillin and 100 µg/mL streptomycin) in a 5% CO2 humidity incubator at 37° C. COS-7, MDA-MB-231, MCF-7, and MDCK-II cells were culture in the DMEM containing 10% FBS and antibiotics (100 units/mL penicillin and 100 µg/mL streptomycin) in a 5% CO2 humidity incubator at 37° C.
(§2) Cell imaging: two different kind of cells were grown overnight on a 35 mm petri dish with a cover slip. The live cells were incubated with 200 nM of TPE-IQ-2O for 1, 5, 10, and 20 mins. In a typical experiment, 2 μL of a 10 mM stock solution of TPE-IQ-2O in DMSO was diluted to 2 mL with cell culture medium, followed by further dilution to desired concentration. The cells were imaged under a fluorescent microscope (BX41 Microscope) using the same excitation and emission filters: excitation filter=400-440 nm, dichroic mirror=455 nm, and emission filter=465 nm long pass.
(§3) Two different kinds of cells were grown overnight on a 35 mm petri dish with a cover slip. The live cells were incubated with 200 nM of TPE-IQ-2O for 10 mins. […] Condition: 200 nM 10 mins (Filter: both close; Channel 5; EX: 400-440 nm; Exposure time: bright field: 1000 ms Fluorescence: 1000 ms.

COS-7 cells = test: LDH cytotoxicity assay, COS-7 cells; assay type: cell-based, simian; conditions: COS-7, with or without white light irradiation
Method: (§4) The HeLa and COS-7 cells were seeded in 96-well plate for 24 hrs. Then a different concentration of TPE-IQ-2O was added into each well. After 30 mins TPE-IQ-2O treatment in the dark, the dye was removed. Half of the cells were treated with white light irradiation for 90 mins and the rest of cells were kept in the dark. After another 24 hrs of incubation, 10 μL of 10× lysis buffer bromide was added to untreated cells as Maximum LDH Activity, while 10 μL ultrapure water was added to other wells. After incubation at 37° C. 5% CO2 for 45 mins, 50 μL of each well sample medium was transferred to a new 96-well plate, followed by addition of 50 μL reaction mixture. 50 μL stop solution were added into each well after 30 mins incubation protected from light. Then the absorbance was achieved by plate reader.

PC-9 cells = test: Cell imaging, PC-9 cells; assay type: cell-based, human; conditions: PC-9, 200 nM, 20 and 10 mins
Method: (§5) The PC-9, HepG2, and HCC827 cells were grown overnight on a 35 mm petri dish with a cover slip. The live cells were incubated with 200 nM of TPE-IQ-2O for 20 and 10 mins. In all the experiments, the cancer cells are fluorescent in solely staining.
(§6) HepG2 cells (human hepatocarcinoma cell line), PC-9 cells (human lung adenocarcinoma cell line), Hela cells (human cervical carcinoma cell line), and LX2 cells (normal cell, human hepatic stellate cell line) were stained with 200 nM DPA-IQ for 10 min. Images were taken under the same equipment settings. Scale bar: 30 μm. Excitation wavelength: 400-440 nm.

mitochondria = test: Co-staining with commercial organelle trackers in HeLa cells (mitochondria staining); assay type: cell-based, human; conditions: HeLa, 200 nM with Mito-tracker red/Lyso-tracker red/DAPI, 20 mins
Method: The HeLa cells were grown overnight on a 35 mm petri dish with a cover slip. Then the HeLa cells were stained with 200 nM TPE-IQ-2O and Mito-tracker red (50 nM)/Lyso-tracker red (50 nM)/DAPI (500 nM) for 20 mins.
The DMSO solution of DPA-IQ was almost non-emissive while the aggregation state powder of this material emits strong green luminescence upon the UV excitation.
The commercially available MitoTracker Red FM is co-stained as a control together with Naph-IQ.

HepG2 cells = test: Cell imaging, HepG2 cells; assay type: cell-based, human; conditions: HepG2, 200 nM, 20 and 10 mins
Method: as §5, §6

LX2 cells = test: Cell imaging, LX2 normal cells; assay type: cell-based, human; conditions: LX2, 200 nM, 20 and 10 mins
Method: The LX2 cells were grown overnight on a 35 mm petri dish with a cover slip. The live cells were incubated with 200 nM of TPE-IQ-2O for 20 and 10 mins.
as §6

HeLa cells [1] = test: Cell imaging under fluorescent microscope, HeLa cells; assay type: cell-based, human; conditions: 200 nM
Method: as §1, §2
Two different kinds of cells were grown overnight on a 35 mm petri dish with a cover slip. The live cells were incubated with 200 nM of TPE-IQ-20 for 20, 10, 5, and 1 mins. The Hela cells were stained by TPE-IQ-2O; the COS-7 cells were stained by TPE-IQ-2O; the Hela cells and COS-7 cells were co-cultured and stained together by TPE-IQ-2O. Condition: 200 nM (Filter: both close; Channel 5; EX: 400-440 nm; Exposure time: bright field: 1000 ms Fluorescence: 1000 ms.
Two different kinds of cells were grown overnight on a 35 mm petri dish with a cover slip. The live cells were incubated with 200 nM of TPE-IQ-2O for 10 mins. The Hela cells were stained by TPE-IQ-2O; the MDCKII cells were stained by TPE-IQ-2O; the MDA-MB-231 cells and COS-7 cells were co-cultured and stained together by TPE-IQ-2O. Condition: 200 nM 10 mins (Filter: both close; Channel 5; EX: 400-440 nm; Exposure time: bright field: 1000 ms Fluorescence: 1000 ms.
as §6

MDA-MB-231 cells = test: Cell imaging under fluorescent microscope, MDA-MB-231 cells; assay type: cell-based; conditions: 200 nM
Method: as §1, §2
as §3, with “for 20, 10, 5, and 1” for “for 10”, “nM” for “nM 10 mins”

MCF-7 cells = test: Cell imaging under fluorescent microscope, MCF-7 cells; assay type: cell-based; conditions: 200 nM
Method: as §1, §2
Two different kinds of cells were grown overnight on a 35 mm petri dish with a cover slip. The live cells were incubated with 200 nM of TPE-IQ-2O for 20, 10, and 5 mins. […] Condition: 200 nM (Filter: both close; Channel 5; EX: 400-440 nm; Exposure time: bright field: 1000 ms Fluorescence: 1000 ms.

HeLa cells [2] = test: LDH cytotoxicity assay, HeLa cells; assay type: cell-based, human
Method: as §4

Compound: CCC[n+]1cc2ccc(C(=C(c3ccc(OC)cc3)c3ccc(OC)cc3)c3ccccc3)cc2c(-c2ccccc2)c1-c1ccccc1 [TPE-IQ-2O, 6-(2,2-bis(4-methoxyphenyl)-1-phenylvinyl)-3,4-diphenyl-2-propylisoquinolin-2-ium]
- Fluorescence of stained cells (MDCK-II cells): not stained
- LDH cytotoxicity (COS-7 cells): no obvious cytotoxicity
- Fluorescence of stained cells (PC-9 cells): fluorescent
- Organelle selectivity (mitochondria): can selectively target the mitochondria
- Fluorescence of stained cells (HepG2 cells): fluorescent
- Fluorescence of stained cells (LX2 cells): no obvious fluorescence
- Fluorescence in co-culture (HeLa cells [1]; HeLa and COS-7 co-cultured and stained together): fluorescence only from the Hela cancer cell
- Fluorescence in co-culture (HeLa cells [1]; HeLa and MDCK-II grown in the same environment, 10 mins): fluorescence only from the Hela cancer cell
- Fluorescence of stained cells (HeLa cells [1]; HeLa stained alone, 1-20 min): fluorescent
- Fluorescence in co-culture (MDA-MB-231 cells; MDA-MB-231 and COS-7 co-cultured and stained together): fluorescence only from the MDA-MB-231 cancer cell
- Fluorescence of stained cells (MDA-MB-231 cells; MDA-MB-231 stained alone, 1-20 min): fluorescent
- Fluorescence in co-culture (MCF-7 cells; MCF-7 and COS-7 co-cultured and stained together): fluorescence only from the MCF-7 cancer cell
- Fluorescence of stained cells (MCF-7 cells; MCF-7 stained alone, 5-20 min): fluorescent
- LDH cytotoxicity (HeLa cells [2]; white light irradiation for 90 mins): HeLa cells decreased as the concentration of TPE-IQ-2O increased
- LDH cytotoxicity (HeLa cells [2]; without white light irradiation): no obvious cytotoxicity
